Laboratory results from ChEMBL document CHEMBL4732271, “Novel Substituted Thiadiazoles as Splicing Modulators for Modulating Splicing of mRNA and Uses Thereof for Treating Diseases” (ACS Med Chem Lett, 2021).

Legend:
[1] = target: SMN2 pre-mRNA; assay: Modulation of SMN2 mRNA D7 splicing in human spinal muscular atrophy patient fibroblasts incubated for 24 hrs by qPCR analysis; assay type: tissue-based
[2] = target: SMN2 pre-mRNA; assay: Modulation of SMN2 mRNA FL splicing in human spinal muscular atrophy patient fibroblasts incubated for 24 hrs by qPCR analysis; assay type: tissue-based
[3] = target: SMN2 pre-mRNA; assay: Modulation of SMN2 mRNA FL splicing in human spinal muscular atrophy patient fibroblasts assessed as SMN2 protein potency incubated for 48 hrs by mesoscale discovery assay

Row | Structure (SMILES) | IC50 [1] | EC50 [2] | EC50 [3]
1 | COc1cc(-c2ccc(-c3nnc(N(C4CC4)[C@@H]4C[C@H]5CC[C@H](N5)C4F)s3)c(O)c2)cc(F)n1 (stereo partly drawn) | 0.01 nM | 16 nM | 0.01 nM
2 | CN(c1nnc(-c2ccc(-c3cnn(CF)c3)cc2O)s1)[C@@H]1C[C@H]2CC[C@H](N2)[C@@H]1F | 16 nM | 16 nM | 0.01 nM
3 | CN(c1nnc(-c2ccc(-c3cnn(C)c3)cc2O)s1)[C@@H]1C[C@H]2CC[C@H](N2)[C@@H]1F | 0.01 nM | 16 nM | 0.01 nM
4 | CN(c1nnc(-c2ccc(-c3cn[nH]c3)cc2O)s1)[C@@H]1C[C@H]2CC[C@H](N2)[C@@H]1F | 0.01 nM | 0.01 nM | 0.01 nM
5 | CN(c1nnc(-c2cc(F)c(-c3cnn(C)c3)cc2O)s1)[C@@H]1C[C@H]2CC[C@H](N2)[C@@H]1F | 0.01 nM | 16 nM | 0.01 nM
6 | CN(c1nnc(-c2ccc(-c3cnn(C)c3)cc2O)s1)[C@H]1C[C@@H]2CCC[C@@H](N2)[C@H]1F | 0.01 nM | 16 nM | 0.01 nM
